Here are results for 6 compounds from PMC3006138, “Fexinidazole – A New Oral Nitroimidazole Drug Candidate Entering Clinical Development for the Treatment of Sleeping Sickness” (PLoS Neglected Tropical Diseases, 2010).

Several values for one entry are separate records, joined by “and”; a condition that tells them apart may be missing. Identical values can stand only once.

Broadly, the IC50 is the midpoint of a concentration-inhibition curve.

In one data set the test system is rat liver cells. Put plainly: Ex vivo unscheduled DNA synthesis. The data set is classed as in vivo. To be noted: positive control. As for the experimental part: Groups of young male Sprague-Dawley rats received fexinidazole at doses of 500, 1000, or 2000 mg/kg orally, and the livers were sampled either 2–4 h or 12–14 h after administration. Hepatocyte suspensions were prepared and incubated in the presence of […] thymidine. Slides of fixed hepatocytes were coated in photographic emulsion and stored for 14 days at 4°C in the dark. The silver grains above the nuclei or cytoplasm (background) were counted, providing a measure of DNA uptake during DNA repair. The difference between these two counts indicated the extent of DNA repair (nuclear net grain count).

Data set [1] concerns bone marrow polychromatic erythrocytes. Put plainly: In vivo bone marrow micronucleus test. On the set-up: species or system mouse. The conditions noted are these: 4.0 mg/kg, positive control. The protocol:
Groups of six young adult male Crl:CD-1 (ICR) mice were treated with fexinidazole at two oral doses of 0, 500, 1000, or 2000 mg/kg given 24 h apart, and bone marrows were harvested 24 h after the second dose. Slides of bone marrow cells were prepared, Giemsa stained, and 2000 polychromatic erythrocytes per animal were scored for micronuclei.

A further data set has as its system human lymphocytes. In words: In vitro micronucleus test. The data set is classed as cell-based. To be noted: 6.25 µg/mL, +S9, positive control. As for the experimental part:
Duplicate human lymphocyte cultures were prepared from the pooled blood of two donors in two independent experiments. […] The test concentrations for micronucleus analysis were selected by evaluating the effect of fexinidazole on the replication index (RI). In each experiment, micronuclei were analysed at three concentrations. Similar tests were carried out on fexinidazole sulfone. As per the Ames test, this was carried out in the absence of rat liver S9 only.

Data set [2] has as its system T. b. gambiense (STIB 930). In words: In vitro trypanocidal assay (Alamar Blue). The conditions noted are these: Trypanosoma brucei, 72 h; read-out: IC50. The data set is classed as cell-based, Trypanosoma brucei gambiense. As for the experimental part: Parasites were cultured with or without the test article at a concentration of 3×10^4/mL in Minimal Essential Medium, according to Baltz et al., with the following modifications: 0.2 mM 2-mercaptoethanol, 1 mM Na-pyruvate, 0.5 mM hypoxanthine and 15% heat inactivated horse serum at 37°C in 5% CO2 in 96-well microtitre plates for 72 h. 10 µL of Alamar Blue was added for the final 3 h to determine viability. The assay was assessed by reading the fluorescence in each well at an excitation wavelength of 536 nm and at an emission wavelength of 588 nm. The IC50 values were calculated from the sigmoidal inhibition curves. For cytotoxicity, 4×10^4/mL L-6 rat skeletal myoblast cells were used, and incubations and assessments carried out as above.
On the technique in general: The colour change of resazurin is a common sign of viable cells or microbes.

Data set [3] deals with T. b. rhodesiense (STIB 900). In words: In vitro trypanocidal assay (Alamar Blue). The data set is classed as cell-based, Trypanosoma brucei rhodesiense. The conditions noted are these: Trypanosoma brucei, 72 h; read-out: IC50. As for the experimental part:
(§1) 10 µL of Alamar Blue was added for the final 3 h to determine viability. […] The IC50 values were calculated from the sigmoidal inhibition curves. For cytotoxicity, 4×10^4/mL L-6 rat skeletal myoblast cells were used, and incubations and assessments carried out as above.

A further data set relates to L-6 rat myoblast cells. Put plainly: Cytotoxicity assay. The data set is classed as cell-based. The conditions noted are these: 72 h, read-out: IC50. As for the experimental part:
as §1

Turning to `CC(=O)Nc1ccc2c(c1)Cc1ccccc1-2` [2-acetamidofluorene, reference compound], in the data set on rat liver cells (75 mg/kg), the “Net nuclear grain count (12–14 h)” value is 9.8.

Consider `O=P1(N(CCCl)CCCl)NCCCO1` (centres unmarked) [Cyclophosphamide, reference compound], for which, in data set [1], the “Micronucleated PCE/1000” value is recorded as 19.3 and the PCE/NCE is listed as 0.89. In addition, the Micronucleated binucleate cells in the data set on human lymphocytes (24-h PHA) is reported as 3.60%. Further, the Micronucleated binucleate cells in the data set with human lymphocytes (48-h PHA) is listed as 12.85%.

In the case of `NCCCC(N)(C(=O)O)C(F)F` (centres unmarked) [Eflornithine], the IC50 in data set [2] was 0.4 µg/mL and 1.67 µM; in data set [3] it was 0.9 µg/mL and 3.8 µM; with L-6 rat myoblast cells, 12 µg/mL and 51 µM.

For the compound `N=C(N)c1ccc(OCCCCCOc2ccc(C(=N)N)cc2)cc1` [Pentamidine], the IC50 in data set [2] is 0.002 µg/mL and 10 nM; in data set [3], 0.003 µg/mL and 9 nM; with L-6 rat myoblast cells, 3 µg/mL and 9 µM.

Consider `Cc1ccc(C(=O)Nc2ccc(S(=O)(=O)O)c3cc(S(=O)(=O)O)cc(S(=O)(=O)O)c23)cc1NC(=O)c1cccc(NC(=O)Nc2cccc(C(=O)Nc3cc(C(=O)Nc4ccc(S(=O)(=O)O)c5cc(S(=O)(=O)O)cc(S(=O)(=O)O)c45)ccc3C)c2)c1` [Suramin], for which the IC50 is 0.062 µg/mL and 46 nM in data set [3]; > 90 µg/mL and > 70 µM in the data set on L-6 rat myoblast cells.

As for `CN(C)N=O` [dimethylnitrosamine, reference compound], the “Net nuclear grain count (2–4 h)” value in the data set with rat liver cells (10 mg/kg) was found to be 8.9.
